Reference: US10028942B2 (priority 2013, dated 2018)

These compounds were tested against T1, DLK (Homo sapiens, UniProt Q12852). Settings: read-out: DLK (Ki) μM; TR-FRET; 5 nM GST-tagged DLK (catalytic domain aa 1-520), 40 nM HIS-MKK4 K131M substrate, 30 μM ATP, 60 minutes.
T1 sequence (Q12852 1-520): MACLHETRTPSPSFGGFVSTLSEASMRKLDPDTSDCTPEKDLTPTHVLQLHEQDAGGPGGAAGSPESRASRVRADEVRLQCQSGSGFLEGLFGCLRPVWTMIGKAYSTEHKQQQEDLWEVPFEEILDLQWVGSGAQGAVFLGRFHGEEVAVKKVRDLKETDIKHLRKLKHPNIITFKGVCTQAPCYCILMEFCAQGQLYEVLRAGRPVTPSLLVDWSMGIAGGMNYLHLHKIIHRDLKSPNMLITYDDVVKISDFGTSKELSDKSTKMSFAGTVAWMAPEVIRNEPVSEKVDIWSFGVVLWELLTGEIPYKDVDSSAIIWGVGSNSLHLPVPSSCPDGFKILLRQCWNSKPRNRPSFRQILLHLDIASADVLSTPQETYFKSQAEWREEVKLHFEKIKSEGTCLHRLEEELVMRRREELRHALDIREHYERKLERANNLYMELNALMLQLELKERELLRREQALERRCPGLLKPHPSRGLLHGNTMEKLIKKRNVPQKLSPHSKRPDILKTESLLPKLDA

Question: Which Ki does the source give for `CC(C)n1nc(-c2cnc(N)c(OC(F)F)c2)cc1C1CCN(C2COC2)CC1` [Compound 99, 3-(difluoromethoxy)-5-(1-isopropyl-5-(1-(oxetan-3-yl)piperidin-4-yl)-1H-pyrazol-3-yl)pyridin-2-amine] here?
Answer: 0.069 µM

Question: Which Ki does the source give for `Cc1c[nH]c2ncc(-c3cc(C4CCN(C5COC5)CC4)n(C(C)C)n3)cc12` [Compound 69, 5-(1-isopropyl-5-(1-(oxetan-3-yl)pipe-ridin-4-yl)-1H-pyrazol-3-yl)-3-meth-yl-1H-pyrrolo[2,3-b]pyridine] here?
Answer: 0.0037 µM

Question: Which Ki does the source give for `FC1(F)CCC(n2nc(-c3cnc4[nH]cc(C(F)(F)F)c4c3)cc2C2CN(C3COC3)C2)C1` (stereo not drawn) [Compound 56, 5-(1-(3,3-difluorocyclopentyl)-5-(1-(oxetan-3-yl)azetidin-3-yl)-1H-pyrazol-3-yl)-3-(trifluoromethyl)-1H-pyrrolo[2,3-b]pyridine] here?
Answer: 0.013 µM

Question: For `CC(=O)N1CC(c2cc(-c3cnc4[nH]cc(C)c4c3)nn2C(C)C)C1` [Compound 12, 1-(3-(1-isopropyl-3-(3-methyl-1H-pyrrolo[2,3-b]pyridin-5-yl)-1H-pyrazol-5-yl)azetidin-1-yl)ethanone], which Ki is on record?
Answer: 0.026 µM

Question: Which Ki does the source give for `CC(C)n1nc(-c2cnc3[nH]cc(C(F)(F)F)c3c2)cc1C1CCN(C2COC2)CC1` [Compound 70, 5-(1-isopropyl-5-(1-(oxetan-3-yl)pipe-ridin-4-yl)-1H-pyrazol-3-yl)-3-(tri-fluoromethyl)-1H-pyrrolo[2,3-b]pyri-dine] here?
Answer: 0.0023 µM

Question: `CC(C)n1nc(-c2cnc3[nH]cc(C(F)(F)F)c3c2)cc1C1CCN(CC#N)CC1` [Compound 51, 2-(4-(1-isopropyl-3-(3-(trifluorometh-yl)-1H-pyrrolo[2,3-b]pyridin-5-yl)-1H-pyrazol-5-yl)piperidin-1-yl)aceto-nitrile] was tested. Which Ki did it give?
Answer: 0.00017 µM

Question: `CC(C)n1nc(-c2cnc3[nH]cc(C#N)c3c2)cc1[C@H]1[C@@H]2CN(C3COC3)C[C@@H]21` [Compound 132, 5-(1-isopropyl-5-((1R,5S,6r)-3-(oxetan-3-yl)-3-azabicyclo[3.1.0]hexan-6-yl)-1H-pyrazol-3-yl)-1H-pyrrolo[2,3-b]pyridine-3-carbonitrile] was tested. Which Ki did it give?
Answer: 0.025 µM

Question: How did the Ki turn out when `Nc1ncc(-c2cc([C@H]3[C@@H]4CN(C5COC5)C[C@@H]43)n(C3CCC3)n2)cc1OC(F)(F)F` [Compound 163, 5-(1-cyclobutyl-5-((1R,5S,6r)-3-(oxe-tan-3-yl)-3-azabicyclo[3.1.0]hexan-6-yl)-1H-pyrazol-3-yl)-3-(trifluorometh-oxy)pyridin-2-amine] was run?
Answer: 0.013 µM

Question: How did the Ki turn out when `CC(C)n1nc(-c2cnc(N)c(C(F)(F)F)c2)cc1C1CCN(CC#N)CC1` [Compound 52, 2-(4-(3-(6-amino-5-(trifluoromethyl)pyridin-3-yl)-1-isopropyl-1H-pyrazol-5-yl)piperidin-1-yl)acetonitrile] was run?
Answer: 0.056 µM

Question: How did the Ki turn out when `CC(C)n1nc(-c2cnc3[nH]cc(Cl)c3c2)cc1C1CCN(C2COC2)CC1` [Compound 72, 3-chloro-5-(1-isopropyl-5-(1-(oxetan-3-yl)piperidin-4-yl)-1H-pyrazol-3-yl)-1H-pyrrolo[2,3-b]pyridine] was run?
Answer: 0.015 µM

Question: With `Nc1ncc(-c2cc([C@H]3[C@@H]4CN(C5COC5)C[C@@H]43)n(CC3CC3)n2)cc1Cl` [Compound 154, 3-chloro-5-(1-(cyclopropylmethyl)-5-((1R,5S,6r)-3-(oxetan-3-yl)-3-azabicyclo[3.1.0]hexan-6-yl)-1H-pyrazol-3-yl)pyridin-2-amine] as the compound, how does the Ki read?
Answer: 0.025 µM

Question: For `Nc1ncc(-c2cc([C@H]3[C@@H]4CN(C5COC5)C[C@@H]43)n(C3CCC3)n2)cc1OC(F)F` [Compound 151, 5-(1-cyclobutyl-5-((1R,5S,6r)-3-(oxe-tan-3-yl)-3-azabicyclo[3.1.0]hexan-6-yl)-1H-pyrazol-3-yl)-3-(difluorometh-oxy)pyridin-2-amine], which Ki is on record?
Answer: 0.0055 µM

Question: `CC(C)n1nc(-c2cnc(N)c(C(F)(F)F)c2)cc1C1CCN(C2CCC2)CC1` [Compound 102, 5-(5-(1-cyclobutylpiperidin-4-yl)-1-isopropyl-1H-pyrazol-3-yl)-3-(trifluoromethyl)pyridin-2-amine] was tested. Which Ki did it give?
Answer: 0.034 µM

Question: How did the Ki turn out when `CC(C)Oc1cc(-c2cc(C3CCN(C4COC4)CC3)n(C(C)C)n2)cnc1N` [Compound 84, 3-isopropoxy-5-(1-isopropyl-5-(1-(oxe-tan-3-yl)piperidin-4-yl)-1H-pyrazol-3-yl)pyridin-2-amine] was run?
Answer: 0.26 µM

Question: `Nc1ncc(-c2cc([C@H]3[C@@H]4CN(C5COC5)C[C@@H]43)n(C3CCC3)n2)cc1C(F)(F)F` [Compound 148, 5-(1-cyclobutyl-5-((1R,5S,6r)-3-(oxetan-3-yl)-3-azabicyclo[3.1.0]hexan-6-yl)-1H-pyrazol-3-yl)-3-(trifluoromethyl)pyridin-2-amine] was tested. Which Ki did it give?
Answer: 0.0012 µM

Question: `Cc1c[nH]c2ncc(-c3cc(C4CCN(C)C(=O)C4)n(C4CC(F)(F)C4)n3)cc12` (stereo not drawn) [Compound 42, 4-(1-(3,3-difluorocyclobutyl)-3-(3-meth-yl-1H-pyrrolo[2,3-b]pyridin-5-yl)-1H-pyrazol-5-yl)-1-methylpiperidin-2-one] was tested. Which Ki did it give?
Answer: 0.25 µM

Question: With `CC(=O)N1CC(c2cc(-c3cnc4[nH]cc(C(F)(F)F)c4c3)nn2C(C)C)C1` [Compound 10, 1-(3-(1-isopropyl-3-(3-(trifluorometh-yl)-1H-pyrrolo[2,3-b]pyridin-5-yl)-1H-pyrazol-5-yl)azetidin-1-yl)ethan-one] as the compound, how does the Ki read?
Answer: 0.0064 µM

Question: Which Ki does the source give for `CC(C)c1cc(-c2cnc3[nH]cc(C(F)(F)F)c3c2)nn1C1CN(C2COC2)C1` [Compound 1, 5-(5-isopropyl-1-(1-(oxetan-3-yl)azetidin-3-yl)-1H-pyrazol-3-yl)-3-(trifluoromethyl)-1H-pyrrolo[2,3-b]pyridine] here?
Answer: 0.034 µM

Question: Which Ki does the source give for `Nc1ncc(-c2cc([C@H]3[C@@H]4CN(C5COC5)C[C@@H]43)n(CC3CC3)n2)cc1C1CC1` [Compound 161, 3-cyclopropyl-5-(1-(cyclopropylmeth-yl)-5-((1R,5S,6r)-3-(oxetan-3-yl)-3-azabicyclo[3.1.0]hexan-6-yl)-1H-pyrazol-3-yl)pyridin-2-amine] here?
Answer: 0.021 µM

Question: How did the Ki turn out when `N#Cc1cc(-c2cc(C3CCN(C4COC4)CC3)n(C3CCCC3)n2)cnc1N` [Compound 93, 2-amino-5-(1-cyclopentyl-5-(1-(oxetan-an-3-yl)piperidin-4-yl)-1H-pyrazol-3-yl)nicotinonitrile] was run?
Answer: 0.17 µM

Question: `Nc1ncc(-c2cc([C@H]3[C@@H]4CN(C5COC5)C[C@@H]43)n(C3CCCC3)n2)cc1Cl` [Compound 136, 3-chloro-5-(1-cyclopentyl-5-((1R,5S,6r)-3-(oxetan-3-yl)-3-azabicyclo [3.1.0]hexan-6-yl)-1H-pyrazol-3-yl) pyridin-2-amine] was tested. Which Ki did it give?
Answer: 0.024 µM

Question: How did the Ki turn out when `Nc1ncc(-c2cc([C@H]3[C@@H]4CN(C5COC5)C[C@@H]43)n(C3CCCC3)n2)cc1OC(F)F` [Compound 137, 5-(1-cyclopentyl-5-((1R,5S,6r)-3-(oxe-tan-3-yl)-3-azabicyclo[3.1.0]hexan-6-yl)-1H-pyrazol-3-yl)-3-(difluoro-methoxy)pyridin-2-amine] was run?
Answer: 0.0074 µM

Question: How did the Ki turn out when `Nc1ncc(-c2cc(C3CCN(C4COC4)CC3)n(C3CCC(F)(F)C3)n2)cc1OCC1CC1` (stereo not drawn) [Compound 87, 3-(cyclopropylmethoxy)-5-(1-(3,3-di-fluorocyclopentyl)-5-(1-(oxetan-3-yl)piperidin-4-yl)-1H-pyrazol-3-yl)pyri-din-2-amine] was run?
Answer: 0.64 µM

Question: How did the Ki turn out when `CC(C)n1nc(-c2cnc(N)c(C(F)(F)F)c2)cc1[C@H]1[C@@H]2CN(S(C)(=O)=O)C[C@@H]21` [Compound 108, 5-(1-isopropyl-5-((1R,5S,6r)-3-(meth-ylsulfonyl)-3-azabicyclo[3.1.0]hex-an-6-yl)-1H-pyrazol-3-yl)-3-(trifluoro-methyl)pyridin-2-amine] was run?
Answer: 0.0049 µM

Question: For `COc1cc(-c2cc(C3CCN(C4COC4)CC3)n(C3CCCC3)n2)cnc1N` [Compound 88, 5-(1-cyclopentyl-5-(1-(oxetan-3-yl)piperidin-4-yl)-1H-pyrazol-3-yl)-3-methoxypyridin-2-amine], which Ki is on record?
Answer: 0.26 µM

Question: Which Ki does the source give for `CC(=O)N1CC(c2cc(-c3cnc4[nH]cc(C(F)(F)F)c4c3)nn2CC2CC2)C1` [Compound 8, 1-(3-(1-(cyclopropylmethyl)-3-(3-(trifluoromethyl)-1H-pyrrolo[2,3-b]pyridin-5-yl)-1H-pyrazol-5-yl)azetidin-1-yl)ethanone] here?
Answer: 0.01 µM

Question: `CC(C)n1nc(-c2cnc(N)c(C(C)(F)F)c2)cc1[C@H]1[C@@H]2CN(C3COC3)C[C@@H]21` [Compound 175, 3-(1,1-difluoroethyl)-5-(1-isopropyl-5-((1R,5S,6r)-3-(oxetan-3-yl)-3-aza-bicyclo[3.1.0]hexan-6-yl)-1H-pyrazol-3-yl)pyridin-2-amine] was tested. Which Ki did it give?
Answer: 0.0092 µM

Question: With `Cc1c[nH]c2ncc(-c3cc(C4CCOCC4)n(C4CC(F)(F)C4)n3)cc12` [Compound 35, 5-(1-(3,3-difluorocyclobutyl)-5-(tetra-hydro-2H-pyran-4-yl)-1H-pyrazol-3-yl)-3-methyl-1H-pyrrolo[2,3-b]pyri-dine] as the compound, how does the Ki read?
Answer: 0.1 µM

Question: `Nc1ncc(-c2cc([C@H]3[C@@H]4CN(C5COC5)C[C@@H]43)n(C3CCC3)n2)cc1Cl` [Compound 147, 3-chloro-5-(1-cyclobutyl-5-((1R,5S,6r)-3-(oxetan-3-yl)-3-azabicyclo[3.1.0]hexan-6-yl)-1H-pyrazol-3-yl)pyri-din-2-amine] was tested. Which Ki did it give?
Answer: 0.018 µM

Question: How did the Ki turn out when `Nc1ncc(-c2cc([C@H]3[C@@H]4CN(C5COC5)C[C@@H]43)n(C3CCCC3)n2)cc1C(F)(F)F` [Compound 135, 5-(1-cyclopentyl-5-((1R,5S,6r)-3-(oxetan-3-yl)-3-azabicyclo[3.1.0]hexan-6-yl)-1H-pyrazol-3-yl)-3-(trifluoromethyl)pyridin-2-amine] was run?
Answer: 0.0089 µM
